Source: patent publication US9708302B2, “Flouro-naphthyl derivatives” (Hoffmann-La Roche Inc., priority 2014, dated 2017)

Assays:
[1] = target: hM1 (Homo sapiens (Human), UniProt P11229); assay: M1 PAM Assay (FLIPR intracellular calcium, CHO human M1 cells); type: cell-based; settings: positive allosteric modulation in presence of EC20 of acetylcholine, first value of cell
Method: (§1) The assay study the effect of several concentrations of test compounds on basal or acetylcholine-stimulated Ca^2+ levels using FLIPR.
(§2) CHO human M1 are plated the day before the experiments at 2×10^5 cells/ml in PDL BioCoat 96 well black/clear plate (Becton 35 4640). The cells are grown at 37° C. and 5% CO2 in the following medium: F12 Nut Mix (Gibco 21765), 10% FCS heat inactivated (GIBCO 16000-044), 1% Pen Strep (Gibco, 15140) and 200 μg/ml Geneticin (Gibco 11811). On the day of the experiment, the medium was removed and replaced by 100 μl of dye loading buffer containing Hanks Balanced Salt solution (HBSS, 14065-049, Gibco) with 20 mM HEPES (Gibco 15630-056), 2 mM Probenicid (Sigma P8761), […] (Molecular Probes F-14202), 10% Pluronic acid Molecular Probes P-3000) pH=7.4 and incubated at 37° C. After 60 minutes extracellular dye was removed and the cells were washed five times with FLIPR buffer containing HBSS (Gibco 14065-049) with 20 mM HEPES (Gibco, 15630-056), 2 mM Probenicid (Sigma P8761) pre-warmed at 37° C. using and Ebml cell washer leaving 100 μl of FLIPR buffer in each well. The cell plate and the diluted compounds (1% DMSO final concentration) are placed on the platform of the FLIPR and the door closed. A signal test to check background fluorescence and basal fluorescence signal is performed. Laser intensity is adjusted if necessary. Two minutes preincubation with the diluted test compounds is provide to determine any agonist activity on the M1 receptor by comparison to 30 nM Acetylcholine control. In order to determine any modulator activity the diluted compounds were added to cells and after two minutes preincubation, the EC20 of acetylcholine is added followed by another two minutes preincubation before the measurement of intracellular Ca^2+ with a FLIPR (Molecular Devices).

[2] = target: rat M1 (Rattus norvegicus (Rat), UniProt P08482); assay: M1 PAM Assay (FLIPR intracellular calcium), rat M1; type: cell-based; settings: positive allosteric modulation in presence of EC20 of acetylcholine; second value of cell
rat M1, sequence (P08482 whole entry): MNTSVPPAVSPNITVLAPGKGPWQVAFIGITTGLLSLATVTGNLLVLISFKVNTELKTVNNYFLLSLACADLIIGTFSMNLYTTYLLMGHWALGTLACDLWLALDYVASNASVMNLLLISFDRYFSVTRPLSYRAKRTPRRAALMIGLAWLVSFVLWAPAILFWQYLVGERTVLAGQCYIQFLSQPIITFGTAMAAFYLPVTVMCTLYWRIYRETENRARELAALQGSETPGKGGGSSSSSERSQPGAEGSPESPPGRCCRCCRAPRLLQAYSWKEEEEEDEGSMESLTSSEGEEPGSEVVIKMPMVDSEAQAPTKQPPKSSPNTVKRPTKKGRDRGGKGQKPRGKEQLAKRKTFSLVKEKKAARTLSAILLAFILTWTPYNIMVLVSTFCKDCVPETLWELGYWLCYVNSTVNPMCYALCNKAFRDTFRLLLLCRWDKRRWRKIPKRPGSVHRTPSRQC
Method: [The procedure below names another species; the source lists this species under the same test.] as §1, §2

hM1, sequence (P11229 whole entry): as the sequence (P08482 whole entry) above, with V5A, S254T, S309P, K320R, G337A, V413I counted along it

Row | SMILES | EC50 [1] [nM] | EC50 [2] [nM]
1 | O=C(N[C@H]1CCCC[C@@H]1O)c1cc(Cc2ccc(Cl)nc2)c2ccccc2c1F (racemic) [Example 1, 4-((6-Chloropyridin-3-yl)methyl)-1-fluoro-N-((1SR,2SR)-2-hydroxycyclohexyl)-2-naphthamide] | 159 | 137
2 | O=C(N[C@H]1CCOC[C@@H]1O)c1cc(Cc2ccc(Cl)nc2)c2ccccc2c1F (racemic) [Example 2, 4-((6-chloropyridin-3-yl)methyl)-1-fluoro-N-((3RS,4SR)-3-hydroxytetrahydro-2H-pyran-4-yl)-2-naphthamide] | 53 | 118
3 | C[C@]1(O)CCCC[C@@H]1NC(=O)c1cc(Cc2ccc(Cl)nc2)c2ccccc2c1F (racemic) [Example 7, 4-((6-chloropyridin-3-yl)methyl)-1-fluoro-N-((1SR,2SR)-2-hydroxy-2-methylcyclohexyl)-2-naphthamide] | 561 | –
4 | C[C@@]1(O)CCCC[C@@H]1NC(=O)c1cc(Cc2ccc(Cl)nc2)c2ccccc2c1F (racemic) [Example 8, 4-((6-chloropyridin-3-yl)methyl)-1-fluoro-N-((1SR,2RS)-2-hydroxy-2-methylcyclohexyl)-2-naphthamide] | 524 | –
5 | O=C(N[C@H]1CCCC[C@H]1O)c1cc(Cc2ccc(Cl)nc2)c2ccccc2c1F (racemic) [Example 9, 4-((6-chloropyridin-3-yl)methyl)-1-fluoro-N-((1SR,2RS)-2-hydroxycyclohexyl)-2-naphthamide] | 539 | –
6 | Cc1ccc(Cc2cc(C(=O)N[C@H]3CCOC[C@@H]3O)c(F)c3ccccc23)cc1 (racemic) [Example 10, 1-Fluoro-N-((3RS,4SR)-3-hydroxytetrahydro-2H-pyran-4-yl)-4-(4-methylbenzyl)-2-naphthamide] | 154 | 221
7 | O=C(N[C@H]1CCOC[C@@H]1O)c1cc(Cc2ccccc2)c2ccccc2c1F (racemic) [Example 11, 4-benzyl-1-fluoro-N-((3RS,4SR)-3-hydroxytetrahydro-2H-pyran-4-yl)-2-naphthamide] | 197 | 356
8 | O=C(N[C@H]1CCOC[C@@H]1O)c1cc(Cc2ccc(Cl)cc2)c2ccccc2c1F (racemic) [Example 12, 4-(4-chlorobenzyl)-1-fluoro-N-((3RS,4SR)-3-hydroxytetrahydro-2H-pyran-4-yl)-2-naphthamide] | 152 | 273
9 | N#Cc1ccc(Cc2cc(C(=O)N[C@H]3CCOC[C@@H]3O)c(F)c3ccccc23)cc1 (racemic) [Example 13, 4-(4-cyanobenzyl)-1-fluoro-N-((3RS,4SR)-3-hydroxytetrahydro-2H-pyran-4-yl)-2-naphthamide] | 67 | 71
10 | Cn1cc(-c2ccc(Cc3cc(C(=O)N[C@H]4CCOC[C@@H]4O)c(F)c4ccccc34)c(F)c2)cn1 (racemic) [Example 14, 1-fluoro-4-(2-fluoro-4-(1-methyl-1H-pyrazol-4-yl)benzyl)-N-((3RS,4SR)-3-hydroxytetrahydro-2H-pyran-4-yl)-2-naphthamide] | 14 | 14
11 | O=C(N[C@H]1CCOC[C@@H]1O)c1cc(Cc2ccc(OC(F)(F)F)cc2)c2ccccc2c1F (racemic) [Example 15, 1-fluoro-N-((3RS,4SR)-3-hydroxytetrahydro-2H-pyran-4-yl)-4-(4-(trifluoromethoxy)benzyl)-2-naphthamide] | 541 | –
12 | O=C(N[C@H]1CCCC[C@@H]1O)c1cc(Cc2ccc(Cl)nc2)c2ccccc2c1F [Example 3, 4-((6-chloropydridin-3-yl)methyl)-1-fluoro-N-((1S,2S)-2-hydroxycyclohexyl)-2-naphthamide] | 84 | 101
13 | O=C(N[C@H]1COCC[C@@H]1O)c1cc(Cc2ccc(Cl)nc2)c2ccccc2c1F [Example 4, 4-((6-Chloropyridin-3-yl)methyl)-1-fluoro-N-((3S,4S)-4-hydroxytetrahydro-2H-pyran-3-yl)-2-naphthamide] | 428 | –
14 | O=C(N[C@H]1CCC[C@@H]1O)c1cc(Cc2ccc(Cl)nc2)c2ccccc2c1F [Example 5, 4-((6-chloropyridin-3-yl)methyl)-1-fluoro-N-((1S,2S)-2-hydroxycyclopentyl)-2-naphthamide] | 363 | 968
15 | O=C(N[C@H]1CCC[C@H]1O)c1cc(Cc2ccc(Cl)nc2)c2ccccc2c1F [Example 6, 4-((6-chloropydridin-3-yl)methyl)-1-fluoro-N-((1S,2R)-2-hydroxycyclopentyl)-2-naphthamide] | 575 | –
16 | N#CC1(c2ccccn2)CCN(Cc2cc(C(=O)N[C@H]3CCCC[C@@H]3O)c(F)c3ccccc23)CC1 [Example 26, 4-((4-Cyano-4-(pyridin-2-yl)piperidin-1-yl)methyl)-1-fluoro-N-((1S,2S)-2-hydroxycyclohexyl)-2-naphthamide] | 258 | 345

The next lines start with the values.

Row | EC50 [1] [nM] | EC50 [2] [nM] | SMILES
17 | 11 | 20 | Cn1cc(-c2ccc(Cc3cc(C(=O)N[C@H]4CCOC[C@@H]4O)c(F)c4ccccc34)cc2)cn1 (racemic) [Example 16, 1-fluoro-N-((3RS,4SR)-3-hydroxytetrahydro-2H-pyran-4-yl)-4-(4-(1-methyl-1H-pyrazol-4-yl)benzyl)-2-naphthamide]
18 | 10 | 14 | Cn1cc(-c2ccc(Cc3cc(C(=O)N[C@H]4CCCC[C@@H]4O)c(F)c4ccccc34)cn2)cn1 (racemic) [Example 17, 1-Fluoro-N-((1S,2S)-2-hydroxycyclohexyl)-4-((6-(1-methyl-1H-pyrazol-4-yl)pyridin-3-yl)methyl)-2-naphthamide]
19 | 3 | 6 | Cn1cc(-c2ccc(Cc3cc(C(=O)N[C@H]4CCOC[C@@H]4O)c(F)c4ccccc34)cn2)cn1 (racemic) [Example 18, 1-fluoro-N-((3RS,4SR)-3-hydroxytetrahydro-2H-pyran-4-yl)-4-((6-(1-methyl-1H-pyrazol-4-yl)pyridin-3-yl)methyl)-2-naphthamide]
20 | 20 | 41 | Cn1cc(-c2ccc(Cc3cc(C(=O)N[C@H]4CCCC[C@@]4(C)O)c(F)c4ccccc34)cn2)cn1 (racemic) [Example 22, 1-fluoro-N-((1SR,2RS)-2-hydroxy-2-methylcyclohexyl)-4-((6-(1-methyl-1H-pyrazol-4-yl)pyridin-3-yl)methyl)-2-naphthamide]
21 | 213 | 490 | Cc1ccc(Cc2cc(C(=O)N[C@H]3CCCC[C@@H]3O)c(F)c3ccccc23)cn1 (racemic) [Example 23, 1-Fluoro-N-((1SR,2SR)-2-hydroxycyclohexyl)-4-((6-methylpyridin-3-yl)methyl)-2-naphthamide]
22 | 27 | 52 | O=C(N[C@@H]1CCOC[C@H]1O)c1cc(Cc2ccc(Cl)nc2)c2ccccc2c1F (stereo in doubt) [Example 25, 4-[(6-chloropyridin-3-yl)methyl]-1-fluoro-N-[(3S,4R)-3-hydroxyoxan-4-yl]naphthalene-2-carboxamide]
23 | 65 | 97 | Cn1cc(-c2ccc(Cc3cc(C(=O)N[C@@H]4CCOC[C@H]4O)c(F)c4ccccc34)cn2)cn1 [Example 19, 1-fluoro-N-[(3S,4R)-3-hydroxytetrahydropyran-4-yl]-4-[[6-(1-methylpyrazol-4-yl)-3-pyridyl]methyl]naphthalene-2-carboxamide]
24 | 2 | 2 | Cn1cc(-c2ccc(Cc3cc(C(=O)N[C@H]4CCOC[C@@H]4O)c(F)c4ccccc34)cn2)cn1 [Example 20, 1-fluoro-N-[(3R,4S)-3-hydroxytetrahydropyran-4-yl]-4-[[6-(1-methylpyrazol-4-yl)-3-pyridyl]methyl]naphthalene-2-carboxamide]
25 | 33 | 48 | Cn1cc(-c2ccc(Cc3cc(C(=O)N[C@H]4COCC[C@@H]4O)c(F)c4ccccc34)cn2)cn1 [Example 21, 1-fluoro-N-((3S,4S)-4-hydroxytetrahydro-2H-pyran-3-yl)-4-((6-(1-methyl-1H-pyrazol-4-yl)pyridin-3-yl)methyl)-2-naphthamide]
26 | 230 | 347 | O=C(N[C@H]1CCCC[C@@H]1O)c1cc(Cc2ccc(C3CC3)nc2)c2ccccc2c1F [Example 24, 4-((6-Cyclopropylpyridin-3-yl)methyl)-1-fluoro-N-((1S,2S)-2-hydroxycyclohexyl)-2-naphthamide]
